Source: patent publication US20160374985A1, “Bioactivity proanthocyanidin compound isolated from Lasia spinosa (L.) Thwait” (Hong Kong Baptist University, priority 2015, published 2016)
Values after ≈ are worked out from the molar mass of the structure shown.

Columns and labels:
KYSE-450 cells = assay: MTT cytotoxicity assay; format: cell-based; details: Homo sapiens, 48 h
Experimental: (§1) Murine RAW264.7 macrophages and human esophageal cancer cell lines KYSE-70, KYSE-150, KYSE-410, KYSE-520 were maintained in RPMI 1640 or DMEM medium supplemented with 100 U/mL penicillin, 100 μg/mL streptomycin and 10% FBS in an incubator at 37° C. with a humidified atmosphere of 5% CO2. Cells were sub-cultured every three days at a dilution of 1:6.
(§2) In the present invention, PA1 was dissolved in dimethyl sulfoxide (DMSO) to make stock solutions which were further diluted in culture medium for this experiment. Cells were seeded in a 96-well plate (3×10^3 cells/well) and allowed to attach to the plate overnight. After the recovery, cells were treated with 1.56, 3.125, 6.25, 12.5, 25, 50 μg/mL of PA1 in culture medium for 48 h. Then, 20 μL of MTT (5 mg/mL stock in PBS) per well was added into the medium (200 μL) and incubated for 4 h at 37° C. Finally, the culture medium was removed and 200 μL of DMSO were added to dissolve the purple formazan crystals. Absorbance of the solution was measured using a microplate reader spectrophotometer (Bio-Rad Laboratories, Inc., Hercules, Calif.) at a wavelength of 570 nm.
To determine the cytotoxic effect of PA1 against human esophagus cancer cells (KYSE-70, KYSE-150, KYSE-450 and KYSE-520 cell lines), MTT (3-[4,5-dimethylthiazol-2-yl]-2,5-diphenyltetrazolium bromide) assay was performed.

[1] = system: LPS-stimulated RAW264.7 macrophages; assay: Nitric oxide production determination (Griess reagent); format: cell-based, murine; details: LPS 100 ng/mL, PA1 1.56-50 μg/mL, vs LPS-alone
Experimental: Murine RAW264.7 macrophages and human esophageal cancer cell lines KYSE-70, KYSE-150, KYSE-410, KYSE-520 were maintained in RPMI 1640 or DMEM medium supplemented with 100 U/mL penicillin, 100 μg/mL streptomycin and 10% FBS in an incubator at 37° C. with a humidified atmosphere of 5% CO2. Cells were sub-cultured every three days at a dilution of 1:6. Nitric oxide (NO) production was indirectly assessed by measuring the nitrite levels in the cultured medium determined by a colorimetric method based on the Griess reagent. The cells were co-treated with various concentrations of PA1 in the absence or presence of LPS (100 ng/mL) at 37° C. for 24 hours. Then, 100 μL of each supernatant was mixed with the equal volume of Griess reagent incubated at room temperature for 15 minutes; meanwhile, sodium nitrite was used as a standard substance. The optical densities were measured at 540 nm with a micro-plate reader.

KYSE-150 cells [2] = assay: MTT cell viability, KYSE-150; format: cell-based, human; details: 6.25 μg/mL
Experimental: as §2, with “Murine RAW264.7 macrophages and human esophageal cancer cell lines KYSE-70, KYSE-150, KYSE-410, KYSE-520 were maintained in RPMI 1640 or DMEM medium supplemented with 100 U/mL penicillin, 100 μg/mL streptomycin and 10% FBS in an incubator at 37° C. with a humidified atmosphere of 5% CO2. Cells were sub-cultured every three days at a dilution of 1:6. In the” for “In the”

DSS-induced colitis = DSS-induced colitis mouse model; format: in vivo, C57BL/6 mice
Source text: 7-week-old male C57BL/6 mice weighing about 20-22 g were purchased from the Laboratory Animal Services Center, the Chinese University of Hong Kong. The study protocols were approved by the committee for Care of Laboratory Animals in the School of Chinese Medicine at the Hong Kong Baptist University.
The animals were randomly assigned into five groups (n=8). Mice in the control group were supplied with distilled water whereas all other experimental groups were given 2.0% (w/v) dextran sulphate sodium (DSS) for 5 days. Thereafter, the mice of the DSS, SASP-treated (200 mg/kg/day) and PA1 (10 or 30 mg/kg/day)-treated groups were administered by gavage with saline, SASP or PA1 from day 6 to day 13, respectively.
The DAI was determined by scoring changes in the body weight, diarrhea, colon length, and bleeding.
The colons were dissected longitudinally, gently washed with ice-cold phosphate buffer saline (PBS), fixed in 4% paraformaldehyde overnight, and embedded in paraffin. Each of five-micro-meter sections was stained with hematoxylin/eosin according to a standard procedure to evaluate colonic damage.
Myeloperoxidase (MPO) is an enzyme mainly released by neutrophil, and its activity is directly associated with the severity of inflammation in a given tissue. In the present invention, MPO activity was measured as described in the inventor's earlier publication (Mu, H. X., et al., Anti-inflammatory Actions of (|)-3′alpha-Angeloxy-4′-keto-3′,4′-dihydroseselin (Pd-Ib) against Dextran Sulfate Sodium-Induced Colitis in C57BL/6 Mice. J Nat Prod, 2016). The results were normalized to the wet weight of colon tissue and quantified as units/g tissue.

KYSE-150 cells [3] = assay: Wound healing assay; format: cell-based, human; details: PA1 6.25 μg/mL, 72 hours
Experimental: as §1
6×10^4 cell/well were seeded in 12 well-plate at 30% confluence in completed medium. After 24 hours seeding, the monolayer was wounded by scoring with a sterile plastic tip (1 mL), then washed twice with PBS to remove cell debris and then incubated in a conditioned medium in the absence or presence of PA1 at 6.25 μg/mL for various periods of time up to 72 hours. Cell migration into the wound surface was monitored by Olympus IX71 microscopy and digitally photographed.
In addition, wound-healing assay was used to test whether those compounds could affect cell motility. A confluent monolayer of KYSE-150 cells was scratched to form a wound and incubated in the absence or presence of PA1 at 6.25 μg/mL. The results obtained were compared to that of controls.

RAW264.7 macrophages = assay: Cell viability of RAW macrophages; format: cell-based, murine; details: RAW cells, 1.56-50 μg/mL, 20 hours
Experimental: as §2, with “Murine RAW264.7 macrophages and human esophageal cancer cell lines KYSE-70, KYSE-150, KYSE-410, KYSE-520 were maintained in RPMI 1640 or DMEM medium supplemented with 100 U/mL penicillin, 100 μg/mL streptomycin and 10% FBS in an incubator at 37° C. with a humidified atmosphere of 5% CO2. Cells were sub-cultured every three days at a dilution of 1:6. In the” for “In the”, “plate overnight. […] Then, 20” for “plate overnight. After the recovery, cells were treated with 1.56, 3.125, 6.25, 12.5, 25, 50 μg/mL of PA1 in culture medium for 48 h. Then, 20”

[4] = mice, 2% DSS, PA1 10 or 30 mg/kg/day by gavage day 6-13

Oc1cc(O)c2c(c1)OC1(c3ccc(O)c(O)c3)Oc3cc(O)c4c(c3C2C1O)OC(c1ccc(O)c(O)c1)[C@@H](O)C4 (some centres unmarked) [PA1, proanthocyanidin A1]
IC50 (KYSE-450 cells): 48.6 µg/mL (≈ 84.4 µM)
NO production [1]: significant inhibition of NO production
Cell viability (KYSE-150 cells [2]): did not alter the cells viability
Colonic MPO activity (DSS-induced colitis; colon homogenates, day 14, vs DSS group): significantly lower the MPO activity
Histological manifestation of colon (H&E) (DSS-induced colitis; mice, 2% DSS, PA1 10 or 30 mg/kg, vs DSS group): reduction in mucosal ulceration, crypt damage, edema, and cell infiltration into mucosal tissue
Disease activity index (DAI) score (DSS-induced colitis; [4]): clinical improvement
Mortality (DSS-induced colitis; [4]): decreased
Body weight loss (DSS-induced colitis; mice, 2% DSS, PA1 10 or 30 mg/kg/day by gavage day 6-13, vs DSS group): reduced body weight loss
Shortening of colon length (DSS-induced colitis; mice, 2% DSS, PA1 10 or 30 mg/kg/day by gavage, day 14): rectified
Cell migration into the wound (KYSE-150 cells [3]): did not migrate into the wound
Cell viability (RAW264.7 macrophages): did not alter the cells viability
